For test [1], the target named is T1, O-form XOR (Rattus norvegicus, UniProt P22985).
T1 construct: Total XOR activity in lung and liver tissue was determined using whole tissue protein extracts; from tissue; host or cells: lung (and liver) of Sprague-Dawley rats
Briefly: DTT reduction of O-form XOR in soluble lung protein extracts. It counts as biochemical. The conditions noted are these: 5 nM DTT at 37° C. for one hour, re-chromatographed on sephadex G25 (FIG. 1e). The protocol:
FIGS. 1A-E. Lung XOR induction following cytokine insufflation. Total lung and liver XOR activity was quantitated in the presence of NAD^+ in soluble desalted protein extracts from rats that were insufflated 24h before with saline, IL-1, IFN-γ or IL-1 and IFN-γ. […] IL-1 and IFN-γ insufflated rats had increased (**, p<0.02) lung (A), but not (p>0.05) liver (B), XOR activity compared to rats insufflated with saline, IL-1 (*, p<0.05), or IFN-γp>0.05). (C) Western immunoblot analysis of lung XOR from cytokine insufflated rats. Antibody to rat β-actin was used to control for gel loading. Gels were scanned with a Perkin-Elmer phosphoimager for semi-quantitation. Data are shown for two rats in each group. […] (D) The percentage of O-form XOR was quantitated in soluble protein extracts of cytokine insufflated rat lungs. […] Rats insufflated with IL-1 and IFN-γ had increased (*, p<0.05) lung O-form XOR activity compared to rats insufflated with saline, IL-1 or IFN-γ. […]
We quantitated the levels of O-form XOR in untreated or cytokine insufflated rat lungs. […] Soluble lung protein extracts from insufflated rats were exposed to 5 nM DTT at 37° C. for one hour and were re-chromatographed on sephadex G25 after which D-form and O-form content was re-measured. […]

Test [2] has as its system IL-1 and IFN-γ insufflated rats. Briefly: Differential and total inflammatory cell counts in BALF after cytokine insufflation. It counts as in vivo, rat. The conditions noted are these: for macrophages in BALF (differential analysis) / neutrophils in BALF (differential analysis): 24 hours following insufflation. An excerpt: (§1) Intratracheal cytokine insufflation.
The test system of test [3] is XOR. The conditions noted are these: cited from earlier work.
The test system of test [4] is caspase-3. As to the kind of experiment: Activated caspase-3 detection in lung sections. The conditions noted are these: prior feeding with diet, IL-1 and IFN-γ insufflation 24 hours before (FIG. 4h). Type of test: in vivo, rat. The protocol:
Activated caspase-3 detection. Detection of the cleaved, mature, activated caspase-3 was performed on paraffin-embedded sections using the Cell Signaling Technology, Inc (Beverly, Mass.) protocol. First, paraffin-embedded slides were deparaffinized and rehydrated. Incubation with 1% H2O2 for 10 min blocked endogenous peroxidase activity. For antigen unmasking, the tissue sections were microwaved in 10 mM sodium citrate buffer (pH 6.0) for 10 min. Next, the sections were blocked in 5% goat serum for 1 hr at room temperature. Slides were then incubated at 4° C. overnight with caspase-3 antibody specific for the cleaved, mature, form of caspase-3 diluted 1:200 in phosphate buffered saline (Asp-175; Cell Signaling Technology, Inc). This was followed by a 30 min incubation with a 1:200 dilution of goat anti-rabbit antibody (PK-6101; Vector Laboratories, Burlingame, Calif.). A subsequent 30 min incubation with VectaStain Elite ABC reagent (PK-6101; Vector Laboratories) ensued. This reaction was followed by the addition of the DAB substrate kit for peroxidase (SK-4100; Vector Labs). The slides were finally counterstained with hematoxylin (H-3401; Vector Labs), dehydrated and mounted. Caspase-3 positive cells were quantitated by counting the percent positive alveolar cells per field under 100× magnification.

Test [5] has as its system IL-1 and IFN-γ insufflated rats. As to the kind of experiment: Lung histology (H&E) after cytokine insufflation. The conditions noted are these: diet before IL-1 and IFN-γ insufflation, 24 hours later (FIG. 4d).
Test [6] has as its target T2, XOR (Rattus norvegicus, UniProt P22985).
T2 construct: Total XOR activity in lung and liver tissue was determined using whole tissue protein extracts; from tissue; host or cells: lung (and liver) of Sprague-Dawley rats
As to the kind of experiment: Xanthine oxidoreductase assay, lung tissue extracts of cytokine insufflated rats. Type of test: in vivo. The conditions noted are these: for induction of total lung XOR activity: 24 hours following intratracheal cytokine insufflation (50 ng per rat) compared to saline alone (FIG. 1a); for lung O-form XOR content: lungs 24 h after insufflation, untreated 23%, saline 42% (FIG. 1d). The protocol:
as §1
(§2) Xanthine oxidoreductase assay. Total XOR activity in lung and liver tissue was determined using whole tissue protein extracts. Briefly, tissues that had been perfused blood free were placed into liquid N2 and stored at −80° C. prior to generating enzyme extracts. Enzyme extracts were prepared by placing frozen specimens in extract buffer (100 mM K-Phosphate, pH 7.8, 1 mM EDTA, 1 mM PMSF). Tissues were thawed in extract buffer on ice and minced. Minced tissues were broken in a rotating dounce using exactly three strokes of the pestle. Tissue homogenates were then centrifuged at 15,000×g at 4° C. for 30 min. Clarified extracts were desalted on 2 cm×20 cm Sephadex G25 columns to remove low molecular weight substances that potentially interfere with enzyme activity (48), and 3 ml of the flow through front were collected. Allopurinol inhibitable XOR activity was determined spectroscopically by measuring uric acid formation from xanthine at 290 nm. The stability of uric acid added to the flow through fraction was determined in the presence and absence of the uricase inhibitor, oxonic acid (OA). […] Evaluation of D-form XOR and O-form XOR was determined by measuring enzymatic activity in the presence and absence of NAD+(49).

The subject of test [7] is alveolar cells. As to the kind of experiment: TUNEL staining and morphometric analysis. It counts as in vivo, rat. The conditions noted are these: prior feeding with diet, IL-1 and IFN-γ insufflation 24 h before (FIG. 4f,g). The protocol: TUNEL staining and morphometric analysis. The TUNEL assay was used to detect apoptotic cells in fixed lung sections. After fixation with 4% buffered formalin, lung tissue sections were embedded in paraffin, sectioned at […], and mounted on glass slides. Slides were de-paraffinized, rehydrated for 10 min in PBS, and treated with 0.002% proteinase K (Sigma) in distilled water for 5 to 15 min at room temperature. Terminal deoxynucleotidyl transferase (TdT) was used for labeling of DNA nicks using the TACS kit (Trevigen, Inc., Gaithersburg, Md.). Counterstaining with DAPI was done to stain nuclear DNA and with Rhodamine coupled wheat germ agglutinin (WGA, Molecular Probes, Eugene, Oreg.) to stain the structural architecture. TUNEL positive cell staining appeared as green fluorescence in the nuclei of clearly defined alveolar cells. Background nuclear staining appeared as blue while the tissue architecture was red.

Test [8] has as its target T2, XOR. As to the kind of experiment: XOR activity in BALF cells / adherent MNP of cytokine insufflated rats. The conditions noted are these: in vivo. As for the experimental part: as §1
as §2, with “Clarified extracts were desalted on 2 cm×20 cm Sephadex G25 columns to remove low molecular weight substances that potentially interfere with enzyme activity (48), and 3 ml of the flow through front were collected.” left out
Neutrophils and MNP were recovered from the BALF 24 hours following IL-1 and IFN-γ insufflation and purified on Percoll gradients. […] Although XOR was induced over a 24 hour period in the infiltrating MNP recovered from the lungs of IL-1 and IFN-γ insufflated rats, neither XOR activity or antigen was detected in circulating rat monocytes (not shown). […]

T2 sequence (P22985 whole entry): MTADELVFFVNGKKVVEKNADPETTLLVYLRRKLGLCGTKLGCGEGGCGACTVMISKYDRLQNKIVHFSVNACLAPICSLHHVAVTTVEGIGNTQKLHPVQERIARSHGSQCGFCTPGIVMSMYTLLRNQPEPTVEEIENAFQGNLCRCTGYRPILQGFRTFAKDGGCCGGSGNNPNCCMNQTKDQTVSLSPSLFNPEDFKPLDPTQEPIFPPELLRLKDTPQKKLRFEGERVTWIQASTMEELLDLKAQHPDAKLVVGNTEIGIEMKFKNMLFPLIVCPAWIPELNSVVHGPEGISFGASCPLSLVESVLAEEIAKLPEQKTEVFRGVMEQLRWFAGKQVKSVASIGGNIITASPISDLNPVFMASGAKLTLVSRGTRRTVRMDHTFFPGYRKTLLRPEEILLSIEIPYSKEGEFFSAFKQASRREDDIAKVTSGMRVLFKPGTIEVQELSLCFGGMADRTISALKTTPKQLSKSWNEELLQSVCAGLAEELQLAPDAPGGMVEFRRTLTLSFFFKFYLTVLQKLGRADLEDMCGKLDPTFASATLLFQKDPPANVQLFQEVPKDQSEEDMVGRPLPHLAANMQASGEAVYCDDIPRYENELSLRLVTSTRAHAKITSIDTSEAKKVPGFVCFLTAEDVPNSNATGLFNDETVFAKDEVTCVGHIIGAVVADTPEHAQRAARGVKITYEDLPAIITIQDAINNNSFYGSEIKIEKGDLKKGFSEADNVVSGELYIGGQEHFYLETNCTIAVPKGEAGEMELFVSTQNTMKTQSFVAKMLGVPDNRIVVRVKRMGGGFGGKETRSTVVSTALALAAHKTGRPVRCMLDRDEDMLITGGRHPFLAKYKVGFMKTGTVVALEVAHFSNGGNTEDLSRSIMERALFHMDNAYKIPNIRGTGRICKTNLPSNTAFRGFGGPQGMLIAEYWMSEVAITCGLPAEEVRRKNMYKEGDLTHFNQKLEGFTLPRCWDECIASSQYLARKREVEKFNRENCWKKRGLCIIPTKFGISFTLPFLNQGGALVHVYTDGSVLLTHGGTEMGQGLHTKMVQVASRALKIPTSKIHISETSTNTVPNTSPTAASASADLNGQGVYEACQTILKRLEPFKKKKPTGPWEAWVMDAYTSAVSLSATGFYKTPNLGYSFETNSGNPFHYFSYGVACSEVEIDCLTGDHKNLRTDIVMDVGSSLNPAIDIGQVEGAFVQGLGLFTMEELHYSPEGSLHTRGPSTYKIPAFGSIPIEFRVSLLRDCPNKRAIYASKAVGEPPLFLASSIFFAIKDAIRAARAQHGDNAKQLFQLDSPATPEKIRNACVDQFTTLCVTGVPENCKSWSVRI
T1 sequence (P22985 whole entry): as above

As to `O[C@H](CS)[C@H](O)CS` (racemic) [DTT, dithiothreitol], the “O-form XOR after DTT reduction” value in test [1] is given as “approximately 23 % of the total XOR”.

`[W]` [tungsten]: the “accumulation of inflammatory cells (BALF cell numbers)” value in test [2] (diet before IL-1 and IFN-γ insufflation, 24 hours later, allopurinol 50 mg/Kg for seven days (FIG. 4c)) is “reduced”. In addition, the “mononuclear cell infiltration and rejection signs” value in test [3] (day 9 post-transplantation) is listed as “significantly ameliorated”. In addition, in test [3] (renal allografts), the NADPH-oxidase activity entry is on record as “without any effect”; the “XOR activity and ROS production” value is given as “pronounced reduction”. Further, the “activation of caspase-3 in cytokine insufflated rat lungs” value in test [4] is “blocked”. Further, the “histologic evidence of airway and perivascular inflammation” value in test [5] is on record as “attenuated”. In test [6] (tungsten diet before IL-1 and IFN-γ insufflation, 24 hours later, vs control diet (FIG. 4a)), the “XOR activity in the lungs” value was “decreased”. Further, the “development of alveolar apoptosis (TUNEL positive alveolar nuclei)” value in test [7] is recorded as “attenuated”. Further, the “XOR activity in the BALF cells (MNP XOR activity)” value in test [8] was “decreased”.

B1: Recombinant rat interleukin-1-α (protein, UniProt P16598 115-270, looked up)
Interleukin-1 alpha: SAPHSFQNNLRYKLIRIVKQEFIMNDSLNQNIYVDMDRIHLKAASLNDLQLEVKFDMYAYSSGGDDSKYPVTLKVSNTQLFVSAQGEDKPVLLKEIPETPKLITGSETDLIFFWEKINSKNYFTSAAFPELLIATKEQSQVHLARGLPSMIDFQIS
notes: recombinant rat cytokine insufflated intratracheally to induce lung inflammation
Regarding B1, in test [2], the “macrophages in BALF (differential analysis)” value is recorded as ~20% and the “neutrophils in BALF (differential analysis)” value is reported as “approximately 80%”. Besides, in test [6], the “induction of total lung XOR activity” value is given as “approximate doubling” and the “lung O-form XOR content” value was 57 % of the total XOR activity.

B2: interferon-y (protein, UniProt P01581 23-156, looked up)
Interferon gamma: QGTLIESLESLKNYFNSSSMDAMEGKSLLLDIWRNWQKDGNTKILESQIISFYLRLFEVLKDNQAISNNISVIESHLITNFFSNSKAKKDAFMSIAKFEVNNPQIQHKAVNELIRVIHQLSPESSLRKRKRSRC
notes: as for B1
As to B2, in test [2], the “macrophages in BALF (differential analysis)” value is ~20% and the “neutrophils in BALF (differential analysis)” value is “approximately 80%”. Moreover, in test [6], the “induction of total lung XOR activity” value is listed as “negligible response” and the “lung O-form XOR content” value is recorded as 52 % of the total XOR activity.

The record behind these values is patent publication US20070224287A1, “Methods of Modulating Inflammatory Reactions by Modulating Xanthine Oxidoreductase Activity” (priority 2003, published 2007).
